Source: ChEMBL document CHEMBL1821550 (Bioorg Med Chem Lett, 2011)

test: physchem; settings: octanol/water

Going from `Fc1ncccc1-c1cc2sc(N3CCC(N4CCCCC4)CC3)nc2cn1` to `Fc1ncccc1-c1cnc2nc(N3CCC(N4CCCCC4)CC3)sc2c1`, the logD falls from 1.7 to 1.5.

Going from `C[C@@H]1CCCN1CCc1ccc2nc(-c3ccc(C#N)cc3)ccc2c1` to `C[C@@H]1CCCN1CCc1ccc2nc(-c3ccc(C#N)s3)ccc2c1`, the logD rises from 3.5 to 3.8.

Compared with `Clc1cc2sc(N3CCC(N4CCCCC4)CC3)nc2cn1`, `Nc1ccc(-c2cc3sc(N4CCC(N5CCCCC5)CC4)nc3cn2)cn1` is lower in logD: 1.2 for the first, 0.9 for the second.

Compared with `CCCn1c(-c2ccc(OCCCN3CCCCC3)cc2)nc2ccccc2c1=O`, `CC(C)c1nc2ccccc2c(=O)n1-c1ccc(OCCCN2CCCC2)cc1` is lower in logD: 3.1 for the first, 2.8 for the second.

Going from `COC(=O)c1cc(-c2ccc3cc(CCN4CCC[C@H]4C)ccc3n2)on1` to `COC(=O)c1c(C)noc1-c1ccc2cc(CCN3CCC[C@H]3C)ccc2n1`, the logD falls from 2.7 to 2.5.

Compared with `COc1cc2c(cc1OC)CN(C(=O)N1CCN(C(C)C)CC1)CC2`, `CC(C)N1CCN(C(=O)N2CCC(c3ccccc3)CC2)CC1` is higher in logD: 1 for the first, 1.6 for the second.

Compared with `Cc1nc2ccc(F)cc2c(=O)n1-c1ccc(OCCCN2CCCC2)cc1`, `Cc1ccc2nc(C)n(-c3ccc(OCCCN4CCCC4)cc3)c(=O)c2c1` is higher in logD: 1.9 for the first, 2.2 for the second.

Going from `C[C@@H]1CCCN1CCc1ccc(-c2ccc(S(=O)(=O)N3CCC(O)C3)cc2)cc1` (stereo partly drawn) to `C[C@@H]1CCCN1CCc1ccc(-c2ccc(S(N)(=O)=O)cc2)cc1`, the logD rises from 1.5 to 1.8.

Going from `Cc1c(-c2ccc(Cl)cc2)noc1-c1ccc2cc(CCN3CCC[C@H]3C)ccc2n1` to `C[C@@H]1CCCN1CCc1ccc2nc(-c3ccc4c(c3)COCO4)ccc2c1`, the logD falls from 5.5 to 3.2.

First: Cc1[nH]ncc1-c1ccc2cc(CCN3CCC[C@H]3C)ccc2n1
Second: Cc1nc(-c2cccs2)sc1-c1ccc2cc(CCN3CCC[C@H]3C)ccc2n1
The logD of the first is lower: 2.4 for the first, 4.6 for the second.

Going from `COc1nccc2c(=O)n(C)c(-c3ccc(OC4CCN(C5CCC5)CC4)cc3)nc12` to `C[C@@H]1CCCN1CCc1ccc(-c2ccc(S(=O)(=O)NC3CCOCC3)cc2)cc1`, the logD rises from 1.6 to 1.8.

Work on `c1cc(C2CCCO2)ccc1OCCCN1CCCCC1` (stereo not drawn) yielded a logD of 1.7.
